# According to PMC10610214 (Pharmaceuticals, 2023):
# Columns and labels:
# H2O2-induced PC12 cells = experiment: Neuroprotection against H2O2-induced PC12 cell injury (MTT); assay type: cell-based; conditions: H2O2 250 μM, mean ± SEM
# Method: Neuroprotection assay is similar to cytotoxicity. Oxidative cellular damage caused by H2O2 has become one of the important methods to study oxidative damage in neural cells. PC12 cells were seeded into a 96-well plate at a density of 5.0 × 10^3 cells per well. After the cells were incubated overnight, the old medium was discarded. […] After incubating overnight, 20 μL of MTT solution (5 mg/mL, Sigma-Aldrich) was added per well, and the cells were incubated for an additional 4 h. Afterwards, the supernatant was removed and 150 μL of DMSO was added. The 96-well plate was placed on the shaker for 10–15 min, and then the absorbance at 492 nm was measured by a microplate reader.
# [1] = biological target: T1, BuChE (from equine serum) (Equus caballus, UniProt P81908); experiment: biochemical; conditions: mean ± SD of three experiments, read-out: BuChE Inhibition (IC50)
# T1 construct: BuChE (from equine serum); purchased Sigma Chemical Company (St. Louis, MO, USA); host or cells: equine serum
# Method: (§1) The ChE inhibitory activity of the test compounds was determined using the modified Ellman’s method. The compounds were dissolved in DMSO (10 mmol/L) and then diluted with PB (phosphate buffer) solution to attain a range of final concentrations. […] Briefly, 100 μL of different concentrations of the test or standard compounds and 100 μL of AChE/BuChE (0.5 U/mL) were added into 48-well plates and then co-incubated at 37 °C for 30 min. […] All concentrations mentioned are final.
# AChE (from electric eel) = biological target: T2, AChE (from electric eel) (Electrophorus electricus, UniProt O42275); experiment: biochemical; conditions: for IC50: AChE from electric eel, mean ± SD of three experiments, read-out: AChE Inhibition (IC50); for Selective Index, IC50 (BChE)/IC50 (AChE): AChE selectivity index
# T2 construct: AChE (from electric eel); purchased Sigma Chemical Company (St. Louis, MO, USA)
# Method: as §1
# PC12 cells = experiment: Cytotoxicity in PC12 cells (MTT); assay type: cell-based
# Method: The cytotoxicity and neuroprotective effects of the compounds on PC12 cells were evaluated by MTT assay. PC12 cells were seeded into a 96-well plate at a density of 5.0 × 10^3 cells per well. After the cells were incubated overnight, the old medium was discarded. The cells were incubated for another 24 h with fresh medium containing compounds at a concentration of 30 or 50 μM. A total of 20 μL of MTT solution (5 mg/mL, Sigma-Aldrich, Shanghai, China) was then added per well, and the cells were incubated for an additional 4 h. Afterwards, the supernatant was removed and 150 μL of DMSO was added to solubilize formazan crystals. The 96-well plate was placed on the shaker for 10–15 min, and then the absorbance at 492 nm was measured by a microplate reader.
# T2 sequence (O42275 24-633): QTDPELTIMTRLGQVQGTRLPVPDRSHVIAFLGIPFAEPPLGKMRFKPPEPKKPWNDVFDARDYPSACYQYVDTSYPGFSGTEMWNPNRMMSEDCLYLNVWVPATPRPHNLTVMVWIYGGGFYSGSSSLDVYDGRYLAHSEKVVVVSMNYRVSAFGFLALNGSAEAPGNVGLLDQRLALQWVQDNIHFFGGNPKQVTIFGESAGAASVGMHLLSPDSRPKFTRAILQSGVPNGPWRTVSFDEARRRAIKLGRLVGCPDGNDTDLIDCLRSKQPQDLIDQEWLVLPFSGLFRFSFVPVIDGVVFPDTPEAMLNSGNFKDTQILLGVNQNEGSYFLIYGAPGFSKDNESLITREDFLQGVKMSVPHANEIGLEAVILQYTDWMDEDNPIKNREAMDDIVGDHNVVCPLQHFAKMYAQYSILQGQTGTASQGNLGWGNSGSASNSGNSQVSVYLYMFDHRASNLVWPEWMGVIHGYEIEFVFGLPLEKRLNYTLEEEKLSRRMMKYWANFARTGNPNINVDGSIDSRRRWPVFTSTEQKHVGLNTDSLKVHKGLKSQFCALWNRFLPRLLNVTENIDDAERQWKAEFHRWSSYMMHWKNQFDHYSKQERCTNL
# T1 sequence (P81908 whole entry): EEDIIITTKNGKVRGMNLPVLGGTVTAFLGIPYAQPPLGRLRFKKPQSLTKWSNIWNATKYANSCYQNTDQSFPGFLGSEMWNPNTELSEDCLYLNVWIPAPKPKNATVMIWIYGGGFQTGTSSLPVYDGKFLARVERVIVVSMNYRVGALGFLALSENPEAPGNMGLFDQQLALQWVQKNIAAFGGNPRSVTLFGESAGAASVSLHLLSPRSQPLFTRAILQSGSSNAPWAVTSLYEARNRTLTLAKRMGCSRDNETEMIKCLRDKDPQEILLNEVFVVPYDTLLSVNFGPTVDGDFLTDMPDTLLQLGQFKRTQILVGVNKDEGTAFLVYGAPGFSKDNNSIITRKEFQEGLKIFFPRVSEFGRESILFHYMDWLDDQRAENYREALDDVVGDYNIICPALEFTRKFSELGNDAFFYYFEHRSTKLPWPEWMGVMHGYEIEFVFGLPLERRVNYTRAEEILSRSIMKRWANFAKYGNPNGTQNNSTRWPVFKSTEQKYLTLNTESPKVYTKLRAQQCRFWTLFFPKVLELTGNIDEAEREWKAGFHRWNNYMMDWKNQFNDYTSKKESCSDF
Structure (SMILES),H2O2-Induced PC12 Cell Viability (% of Control) (H2O2-induced PC12 cells; compound 10 μM),H2O2-Induced PC12 Cell Viability (% of Control) (H2O2-induced PC12 cells; compound 30 μM),IC50 [1],IC50 (AChE (from electric eel)),Cell Viability (% of Control) (PC12 cells; compound 30 μM),Cell Viability (% of Control) (PC12 cells; compound 50 μM),"Selective Index, IC50 (BChE)/IC50 (AChE) (AChE (from electric eel))"
O=C1c2ccccc2-n2c1nc1ccc(NS(=O)(=O)c3ccc(OC(F)(F)F)cc3)cc1c2=O [8m],44.67 ± 2.3 % of Control,53.92 ± 3.9 % of Control,> 50 µM,> 50 µM,99.5 ± 3.1 % of Control,98.2 ± 1.7 % of Control,
CC(C)c1cc(C(C)C)c(S(=O)(=O)Nc2ccc3nc4n(c(=O)c3c2)-c2ccccc2C4=O)c(C(C)C)c1 [8d],39.65 ± 5.2 % of Control,53.26 ± 1.4 % of Control,> 50 µM,> 50 µM,99.8 ± 0.7 % of Control,98.7 ± 2.6 % of Control,
CC(C)c1cc(C(C)C)c(S(=O)(=O)Nc2ccc3c(c2)C(=O)c2nc4ccccc4c(=O)n2-3)c(C(C)C)c1 [4d],42.53 ± 2.7 % of Control,50.1 ± 0.8 % of Control,> 50 µM,> 50 µM,99.4 ± 2.4 % of Control,97.3 ± 3.6 % of Control,
COc1ccc(S(=O)(=O)Nc2ccc3c(c2)C(=O)c2nc4ccccc4c(=O)n2-3)cc1OC [4k],44.35 ± 1.5 % of Control,46.23 ± 0.6 % of Control,> 50 µM,25.4 ± 1.53 µM,98.8 ± 1.9 % of Control,98.2 ± 3.4 % of Control,
O=C1c2ccccc2-n2c1nc1ccc(NS(=O)(=O)c3ccccc3OC(F)(F)F)cc1c2=O [8n],38.94 ± 1.5 % of Control,49.96 ± 0.8 % of Control,> 50 µM,42 ± 1.7 µM,99.2 ± 1.9 % of Control,98.3 ± 2.7 % of Control,
COc1ccc(S(=O)(=O)Nc2ccc3nc4n(c(=O)c3c2)-c2ccccc2C4=O)c(OC)c1 [8l],34.61 ± 3.7 % of Control,38.1 ± 2.7 % of Control,> 50 µM,> 50 µM,99.4 ± 1.1 % of Control,98.7 ± 1.3 % of Control,
COc1ccc(S(=O)(=O)Nc2ccc3c(c2)C(=O)c2nc4ccccc4c(=O)n2-3)cc1 [4j],38.24 ± 3.1 % of Control,41.69 ± 1.7 % of Control,> 50 µM,> 50 µM,99.7 ± 1.6 % of Control,99.1 ± 1.2 % of Control,
O=C1c2cc(NS(=O)(=O)c3ccccc3C(F)(F)F)ccc2-n2c1nc1ccccc1c2=O [4o],42.32 ± 0.7 % of Control,50.5 ± 0.5 % of Control,8.61 ± 1.2 µM,2.45 ± 0.25 µM,99.6 ± 2.7 % of Control,98.2 ± 1.7 % of Control,3.5
O=C1c2cc(NS(=O)(=O)c3ccc(OC(F)(F)F)cc3)ccc2-n2c1nc1ccccc1c2=O [4m],37.89 ± 4.3 % of Control,44.98 ± 2.5 % of Control,10.2 ± 1.24 µM,7.75 ± 0.21 µM,99.6 ± 0.8 % of Control,99.3 ± 2.1 % of Control,
COc1ccc(S(=O)(=O)Nc2ccc3nc4n(c(=O)c3c2)-c2ccccc2C4=O)cc1OC [8k],44.37 ± 0.5 % of Control,52.28 ± 2.3 % of Control,> 50 µM,> 50 µM,99.6 ± 1.2 % of Control,99.5 ± 2.7 % of Control,
O=C1c2ccccc2-n2c1nc1ccc(NS(=O)(=O)c3c(Cl)cccc3Cl)cc1c2=O [8p],42.32 ± 0.7 % of Control,50.5 ± 0.5 % of Control,> 50 µM,> 50 µM,99.6 ± 2.7 % of Control,98.2 ± 1.7 % of Control,
CC(=O)Nc1ccc(S(=O)(=O)Nc2ccc3c(c2)C(=O)c2nc4ccccc4c(=O)n2-3)cc1 [4i],34.43 ± 5.5 % of Control,40.93 ± 2.9 % of Control,> 50 µM,8.8 ± 1.23 µM,99.6 ± 1.7 % of Control,98.3 ± 3.0 % of Control,
O=C1c2ccccc2-n2c1nc1ccc(NS(=O)(=O)c3ccc(F)cc3)cc1c2=O [8f],34.24 ± 3.5 % of Control,42.25 ± 1.7 % of Control,> 50 µM,43 ± 1.12 µM,99.4 ± 1.7 % of Control,98.3 ± 3.0 % of Control,
O=C1c2cc(NS(=O)(=O)c3ccccc3OC(F)(F)F)ccc2-n2c1nc1ccccc1c2=O [4n],46.53 ± 1.2 % of Control,52.84 ± 1.8 % of Control,4.93 ± 0.35 µM,5.92 ± 0.56 µM,99.9 ± 0.7 % of Control,99.7 ± 1.8 % of Control,
"O=c1c(O)c(-c2ccc(O)c(O)c2)oc2cc(O)cc(O)c12 [Quercetin, reference compound]",55.21 ± 1.6 % of Control,63.27 ± 2.1 % of Control,,,99.6 ± 1.1 % of Control,99.5 ± 1.3 % of Control,
CC(C)(C)c1ccc(S(=O)(=O)Nc2ccc3c(c2)C(=O)c2nc4ccccc4c(=O)n2-3)cc1 [4c],45.59 ± 0.7 % of Control,56.4 ± 1.2 % of Control,8.13 ± 1.21 µM,2.56 ± 0.32 µM,99.5 ± 3.1 % of Control,98.2 ± 1.7 % of Control,3.2
